In ChEMBL document CHEMBL5512605, “Targeted regulated cell death with small molecule compounds in colorectal cancer: Current perspectives of targeted therapy and molecular mechanisms” (Eur J Med Chem, 2024):
One block for each compound: values may come before it.

Assays:
HCT-116 [1] = assay: Antiproliferative activity against human HCT-116 cells; format: functional, cell-based; settings: for IC50: Homo sapiens, HCT-116
SW480 [2] = assay: Antiproliferative activity against human SW480 cells; format: functional, cell-based
SW480 [3] = assay: Antiproliferative activity against human SW480 cells assessed as inhibition of cell growth measured after 48 hrs by CCK-8 method; format: functional, cell-based; settings: SW480, 48 h
SW-620 [4] = assay: Antiproliferative activity against human SW620 cells assessed as inhibition of cell growth measured after 48 hrs by CCK-8 method; format: functional, cell-based; settings: SW-620, 48 h
DLD-1 = assay: Antiproliferative activity against human DLD-1 cells assessed as inhibition of cell growth measured after 48 hrs by CCK-8 method; format: functional, cell-based; settings: DLD-1, 48 h
HCT-116 [5] = assay: Antiproliferative activity against human HCT-116 cells assessed as inhibition of cell growth measured after 48 hrs by CCK-8 method; format: functional, cell-based; settings: HCT-116, 48 h
HT-29 [6] = assay: Antiproliferative activity against human HT-29 cells assessed as inhibition of cell growth measured after 48 hrs by CCK-8 method; format: functional, cell-based; settings: HT-29, 48 h
HT-29 [7] = assay: Antiproliferative activity against human HT-29 cells assessed as inhibition of cell viability incubated for 24 hrs by CCK-8 method; format: functional, cell-based; settings: HT-29, 24 h
SW480 [8] = assay: Antiproliferative activity against human SW480 cells assessed as inhibition of cell growth incubated for 24 hrs by CCK-8 method; format: functional, cell-based; settings: SW480, 24 h
Caco-2 = assay: Antiproliferative activity against human Caco-2 cells measured after 24 hrs by MTT assay; format: functional, cell-based; settings: Caco-2, 24 h
SW-620 [9] = assay: Antiproliferative activity against human SW620 cells assessed as inhibition of cell growth; format: functional, cell-based
HCT-116 [10] = assay: Antiproliferative activity against human HCT-116 cells assessed as inhibition of cell growth; format: functional, cell-based
HCT-116 [11] = assay: Cytotoxicity against human HCT-116 cells measured after 24 hrs by MTT assay; format: functional, cell-based; settings: HCT-116, 24 h
HT-29 [12] = assay: Cytotoxicity against human HT-29 cells measured after 24 hrs by MTT assay; format: functional, cell-based; settings: HT-29, 24 h
CT26 = assay: Antiproliferative activity against mouse CT26 cells assessed as inhibition of cell viability; format: functional, cell-based
HCT-116 [13] = assay: Antiproliferative activity against human HCT-116 cells assessed as inhibition of cell viability; format: functional, cell-based
HCT-116 [14] = assay: Antiproliferative activity against human HCT-116 cells incubated for 48 hrs by MTT assay; format: functional, cell-based; settings: HCT-116, 48 h
HT-29 [15] = assay: Antiproliferative activity against human HT-29 cells incubated for 48 hrs by MTT assay; format: functional, cell-based; settings: HT-29, 48 h
SW-620 [16] = assay: Antiproliferative activity against human SW620 cells; format: functional, cell-based
SW837 = assay: Antiproliferative activity against human SW837 cells; format: functional
HCT-116 [17] = assay: Cytotoxicity against human HCT-116 cells measured after 48 hrs by MTT colorimetric assay; format: functional, cell-based; settings: HCT-116, 48 h
HT-29 [18] = assay: Induction of cell cycle arrest in human HT-29 cells measured after 24 to 48 hrs by PI staining based flow cytometry analysis; format: functional
HCT-116 [19] = assay: Antiproliferative activity against human HCT-116 cells assessed as inhibition of cell growth measured upto 72 hrs by CCK-8 method; format: functional, cell-based; settings: HCT-116, 72 h
COLO 320 = assay: Antiproliferative activity in human COLO 320 cells incubated for 24 hrs by MTT assay; format: functional
HCT-116 [20] = assay: Cytotoxicity against human HCT-116 cells; format: functional, cell-based; settings: Homo sapiens, HCT-116
SW-620 [21] = assay: Cytotoxicity against human SW620 cells; format: functional, cell-based; settings: Homo sapiens, SW-620
HCT-116 [22] = assay: Cytotoxicity against human HCT-116 cells assessed as inhibition of cell proliferation measured after 48 hrs by MTT assay; format: functional, cell-based; settings: HCT-116, 48 h
RKO = assay: Cytotoxicity against human RKO cells assessed as inhibition of cell proliferation measured after 48 hrs by MTT assay; format: functional, cell-based
SW480 [23] = assay: Cytotoxicity against human SW480 cells assessed as inhibition of cell proliferation measured after 48 hrs by MTT assay; format: functional, cell-based; settings: Homo sapiens, SW480, 48 h

IC50 (HCT-116 [1]): 5 µM
IC50 (SW480 [2]; Homo sapiens, SW480): 5 µM
SMILES: COc1ccc(-c2cc(=O)c3c(O)c(OC)c(O)c(OC)c3o2)cc1 [NEVADENSIN]

IC50 (SW480 [3]): 15.3 µM
IC50 (SW-620 [4]): 10.5 µM
IC50 (DLD-1): 10.8 µM
IC50 (HCT-116 [5]): 8.15 µM
IC50 (HT-29 [6]): 9.58 µM
SMILES: CCc1ccc2c3[nH]c4ccccc4c3cc[n+]2c1

IC50 (HT-29 [7]): 27.3 µM
IC50 (SW480 [8]): 33 µM
SMILES: CC(CN1c2ccccc2Sc2ccccc21)N(C)C (centres undefined) [PROMETHAZINE]

IC50 (HCT-116 [1]): 24.5 µM
SMILES: COc1cc(C[C@@H](CO[C@@H]2O[C@H](CO)[C@@H](O)[C@H](O)[C@H]2O)[C@H](CO[C@@H]2O[C@H](CO)[C@@H](O)[C@H](O)[C@H]2O)Cc2ccc(O)c(OC)c2)ccc1O

SMILES: CC[C@@H](C(=O)[C@@H](C)[C@@H](O)[C@H](C)[C@@H]1O[C@@H]([C@@H](CC)C(=O)O)CC[C@@H]1C)[C@H]1O[C@]2(C=C[C@@H](O)[C@]3(CC[C@@](C)([C@H]4CC[C@](O)(CC)[C@H](C)O4)O3)O2)[C@H](C)C[C@@H]1C [SALINOMYCIN]
IC50 (Caco-2): 15.7 µM

SMILES: CC1=C(O)C(=O)C=C2C1=CC=C1[C@@]2(C)CC[C@@]2(C)[C@@H]3C[C@](C)(C(=O)O)CC[C@]3(C)CC[C@]12C [CELASTROL]
IC50 (SW-620 [9]): 0.29 µM
IC50 (HCT-116 [10]): 0.29 µM

SMILES: C[C@@H]1CC[C@@]2(OC1)O[C@H]1C[C@H]3[C@]4(C)CC=C5C[C@@H](O[C@@H]6O[C@H](CO)[C@@H](O[C@@H]7O[C@@H](C)[C@H](O[C@@H]8O[C@@H](C)[C@H](O)[C@@H](O)[C@@H]8O)[C@@H](O)[C@H]7O)[C@H](O)[C@H]6O[C@@H]6O[C@@H](C)C(O)[C@@H](O)[C@H]6O)CC[C@]5(C)[C@H]4CC[C@]3(C)[C@H]1[C@@H]2C (some centres undefined)
IC50 (HCT-116 [11]): 3.73 µM
IC50 (HT-29 [12]): 1.89 µM

SMILES: C/C=C1/CN(C)[C@H]2Cc3c([nH]c4ccccc34)[C@H](c3cc4[nH]c5c(c4cc3OC)CCN3C[C@@H]4C[C@H](CC)[C@H]3[C@@]5(C(=O)OC)C4)C[C@@H]1C2C(=O)OC (some centres undefined)
IC50 (CT26): 1.38 µM
IC50 (HCT-116 [13]): 4.1 µM

IC50 (HCT-116 [14]): 32 µM
IC50 (HT-29 [15]): 18.8 µM
SMILES: O=c1cc(-c2ccc(Oc3c(-c4ccc(O)cc4)oc4cc(O)cc(O)c4c3=O)cc2)oc2cc(O)cc(O)c12

IC50 (SW-620 [16]): 2.45 µM
SMILES: CC(/C=C/C(=O)NO)=C\[C@@H](C)C(=O)c1ccc(N(C)C)cc1 [TRICHOSTATIN]

SMILES: O=C1C2C3C=CC(C4CC34)C2C(=O)N1c1ccc(Cc2ccncc2)cc1 (centres undefined)
IC (HCT-116 [1]): 10 µM
IC (SW480 [2]): 10 µM

SMILES: Cc1ncsc1-c1ccc([C@H](C)NC(=O)[C@@H]2C[C@@H](O)CN2C(=O)[C@@H](NC(=O)CCCCCC(=O)N2CCN(CC[C@H](CSc3ccccc3)Nc3ccc(S(=O)(=O)NC(=O)c4ccc(N5CCN(CC6=C(c7ccc(Cl)cc7)CCC(C)(C)C6)CC5)cc4)cc3S(=O)(=O)C(F)(F)F)CC2)C(C)(C)C)cc1 [DT-2216]
IC (SW837): 1 µM

SMILES: CC(=O)Oc1ccccc1C(=O)Nc1ncc([N+](=O)[O-])s1 [NITAZOXANIDE]
IC50 (HCT-116 [17]): 11.2 µM

IC50 (HT-29 [18]): 60 µM
SMILES: N#CC1=C(N)Oc2ccc3ccccc3c2C1c1ccc(F)cc1 (centres undefined)

SMILES: COC(=O)[C@H](C)NC(=O)N[C@]1(C)CC[C@]2(C)CC[C@]3(C)C4=CC=C5C(=CC(=O)C(O)=C5C)[C@]4(C)CC[C@@]3(C)[C@@H]2C1
IC50 (SW-620 [9]): 0.28 µM
IC50 (HCT-116 [10]): 0.28 µM

IC50 (HCT-116 [19]): 8000 µM
SMILES: CC(=O)Oc1ccccc1C(=O)O [ASPIRIN]

SMILES: O=c1c(O)c(-c2ccc(O)c(O)c2)oc2cc(O)cc(O)c12 [QUERCETIN]
IC (COLO 320): 50 µM

SMILES: C=CC(=O)Nc1ccccc1Nc1nc(Nc2ccc(CN3CCC(C(=O)NO)CC3)cc2)ncc1Cl
IC50 (HCT-116 [20]): 0.134 µM
IC50 (SW-620 [21]): 0.309 µM

SMILES: C[C@@H]1CC[C@@]2(OC1)O[C@H]1C[C@H]3[C@@H]4CC=C5C[C@H](O[C@@H]6O[C@H](CO)[C@@H](O)[C@H](O[C@@H]7O[C@H](CO)[C@@H](O)[C@H](O)[C@H]7O)[C@H]6O[C@@H]6O[C@@H](C)[C@H](O)[C@@H](O)[C@H]6O)CC[C@]5(C)[C@H]4CC[C@]3(C)[C@H]1[C@@H]2C
IC50 (HCT-116 [22]): 5.47 µM
IC50 (RKO): 3.12 µM
IC50 (SW480 [23]): 2.67 µM
